Data: patent EP3426036B1, “CROP ENHANCEMENT” (priority 2016, dated 2017)

Columns and labels:
Assay type in all cases: in vivo
[1] = test system: Durum wheat; assay: Crop enhancement effect on wheat under drought conditions in the field (Example 1c); details: for Protein content / Grain Yield / TGW / No. of grains per ear: 75.0 g a.i/ha at BBCH GS 39; for Grain Yield / TGW: adjusted to 10% standard moisture; for No. of grains per ear: average of 10 ears per plot
Method: Durum wheat (plot size 24m^2) was treated with a single application at BBCH GS 39 (flag leaf stage) with the compound of formula I at a rate of 75.0 g a.i/ha. The plants were split into non-irrigated (only rainfed) and irrigated with 50% of evapotranspiration compensation. Untreated check plants were also included in both water supply conditions. These water supply conditions were maintained during the reproductive stages of plant growth (BBCH 55-73). The trial was carried out with six replicates.
At the end of the trial, a 12m^2 plot was harvested from each of four replicates for each water supply condition. […]
In addition to the above factors, the Normalised Difference Vegetation Index (NDVI) was also assessed. This is an estimate of the photosynthetically absorbed radiation over the crop surfaces and allows an estimate of the Leaf Area Index in order to track plant growth and vigour. The NDVI was measured several times during the trial with two handheld crop devices with active light source optical sensors: GreenSeeker HCS-100 (7 measurements) and RapidSCAN CS-45 (5 measurements).

[2] = test system: bread wheat (Triticum aestivum L.) and durum wheat (Triticum durum Desf.); assay: Further wheat field trials under controlled and natural drought stress (Example 1e); details: for average grain yield increase compared to untreated check / mean TGW increase versus untreated check: multitrial analysis; for average grain yield increase compared to untreated check: all 26 disease-free modalities, 30 or 75 g ha^-1; for mean TGW increase versus untreated check: controlled and natural drought stress, 20 modalities; for grain yield increase compared to untreated check: only trials under controlled drought stress conditions
Source text: Wheat field trials were designed as randomized complete blocks with six replicates. Sowing, fertilization and general crop maintenance were done in accordance to locally accepted best practice. Crop protection maintenance products were applied preventatively only if required across all trial area (check and experimental plots and boundary areas) including locally registered seed treatment products, herbicides and insecticides. In case of potential disease attack, DMI and/or contact fungicides were applied preventatively. Application of fungicides from Qo inhibitors (strobilurines) and SDHI groups were not allowed to avoid possible interaction with compound I experimental treatments. Any products with plant growth regulator effects were excluded as well. Pesticides were applied not less than three to four days before or after experimental applications of compound I.
Following assessments were taken: general phytotoxicity at 7 and 14 days after application, general pest damage ratings before harvest, grain yield adjusted to 10% standard moisture (calculation based on fresh grain weight and grain moisture at harvest), thousand grain weight (TGW) adjusted to 10% standard moisture.
Entire plots or only central treated areas were harvested manually using cutters with stationary threshers (trials located in Argentina, Egypt and India) or with small-plot combine-harvesters (trials located in France, Italy and USA).
Single trial statistical analysis of variance (ANOVA) was done with Agstat 1.6 / ACSAP 4.29. Multi-trial analysis was based on paired t-test with comparison of compound I experimental treatments versus untreated checks and was done with TIBCO® Spotfire® 7.0.1.
To minimize risk of environmental impacts from rain on drought stress period and level, all proposed locations were validated through internal Environment and Crop Modelling process. This modelling allowed to calculate the potential drought stress intensity through estimation of climatic cumulative water deficit (sum of all daily water deficit during reproductive stage of wheat development). Daily water deficit was calculated as difference between daily precipitation and daily evapotranspiration by wheat plants. Thirty-eight candidate locations were proposed as suitable for drought stress trials. We performed field trials at fifteen locations from which we present results from the eleven disease-free trials that originated from seven locations: Egypt (Kaha), Italy (Foggia), India (Dongargaon, Mandleshwar and Sanwer) and USA (Woodland, CA; Jerome, ID).
Each field trial had two adjacent blocks: well-watered (WW) block with untreated check plots used for stress level estimation and grain yield reference and water-stressed (WS) block with experimental treatments including untreated check plots. Plot size varied between trials from 8.45 m^2 (Woodland, US) up to 30 m^2 (Kaha, EG) and harvested plot size was from 8.45 m^2 (Woodland, US) up to 20.7 m^2 (India). Seven locally adapted drought sensitive commercial varieties of spring and winter bread wheat (Triticum aestivum L.) and durum wheat (Triticum durum Desf.) were tested: var. Massimo Meridio (Foggia, IT), var. Saha 94 and Sods 12 (Kaha, EG), var. GW322 and GW366 (India), var. Alturas (Jerome, US) and var. Summit 515 (Woodland, US).
To manage drought stress, three types of water irrigation systems were used: precise drip irrigation (Kaha, EG; Foggia, IT; Woodland, US), solid-set sprinkler irrigation (Jerome, US) and flood irrigation (all sites in India). Plants in WW blocks were well irrigated from sowing till harvest to compensate 100% of evapotranspiration demand, targeting the optimum yield achievable in the trial area. Plants in WS blocks were irrigated from planting till the beginning of pre-stress period exactly at the same level of water supply as in WW conditions. […]

[3] = test system: spring wheat (Triticum aestivum L.) of the variety Taifun; assay: Whole plant transpiration analysis
Method: For whole plant transpiration analysis, spring wheat (Triticum aestivum L.) of the variety Taifun was grown under pest free conditions in 1.2 L growth columns filled with a field soil (sandy loam). Plants were daily watered to a target soil water content of 0.25 g H2O g^-1 dry soil. Plant growth and transpiration analysis was in growth chambers at 25/18 °C (day/night), 60 % relative humidity and a light intensity of 600 µmol m^-2 s^-1 at 14 hours of photoperiod. Transpiration was measured by monitoring the weight of the plant-pot-system with an automated weighing system. Application of compound I formulated as EC 100 at 75 g ha^-1 was done with a track sprayer at 200 L ha^-1 when plants were at BBCH 23. Transpiration was monitored at optimal watering for seven days after application, afterwards watering was stopped. The experimental layout was a randomized complete block design with nine replications per treatment; one experimental unit was two plants per pot. The transpiration before treatment was used as covariant for statistical analysis (ANOVA, Agstat 1.6 / ACSAP 4.29).

Cn1cc(C(=O)Nc2cccc3c2C2CCC3C2=C(Cl)Cl)c(C(F)F)n1 (centres unmarked) [Compound I, benzovindiflupyr]
Protein content ([1]; 50% ET compensation): 15.45% | Grain Yield ([1]; 50% ET compensation): 60.60 dT/Ha | TGW ([1]; 50% ET compensation): 45.78 g | No. of grains per ear ([1]; 50% ET compensation): 42.08 | Normalised Difference Vegetation Index (NDVI) ([1]; GreenSeeker HCS-100, BBCH 69(1), 50% ET compensation): 0.820 | Normalised Difference Vegetation Index (NDVI) ([1]; GreenSeeker HCS-100, BBCH 69(1), non-irrigated): 0.788 | Normalised Difference Vegetation Index (NDVI) ([1]; GreenSeeker HCS-100, BBCH 69(2), 50% ET compensation): 0.787 | Normalised Difference Vegetation Index (NDVI) ([1]; GreenSeeker HCS-100, BBCH 69(2), non-irrigated): 0.747 | Normalised Difference Vegetation Index (NDVI) ([1]; GreenSeeker HCS-100, BBCH 73, 50% ET compensation): 0.750 | Normalised Difference Vegetation Index (NDVI) ([1]; GreenSeeker HCS-100, BBCH 73, non-irrigated): 0.672 | Normalised Difference Vegetation Index (NDVI) ([1]; GreenSeeker HCS-100, BBCH 75-83, 50% ET compensation): 0.705 | Normalised Difference Vegetation Index (NDVI) ([1]; GreenSeeker HCS-100, BBCH 75-83, non-irrigated): 0.557 | Normalised Difference Vegetation Index (NDVI) ([1]; GreenSeeker HCS-100, BBCH 83-85, 50% ET compensation): 0.673 | Normalised Difference Vegetation Index (NDVI) ([1]; GreenSeeker HCS-100, BBCH 83-85, non-irrigated): 0.468 | Normalised Difference Vegetation Index (NDVI) ([1]; GreenSeeker HCS-100, BBCH 85, 50% ET compensation): 0.572 | Normalised Difference Vegetation Index (NDVI) ([1]; GreenSeeker HCS-100, BBCH 85, non-irrigated): 0.375 | Normalised Difference Vegetation Index (NDVI) ([1]; GreenSeeker HCS-100, BBCH 87, 50% ET compensation): 0.464 | Normalised Difference Vegetation Index (NDVI) ([1]; GreenSeeker HCS-100, BBCH 87, non-irrigated): 0.185 | Normalised Difference Vegetation Index (NDVI) ([1]; RapidSCAN CS-45, BBCH 69, 50% ET compensation): 0.663 | Normalised Difference Vegetation Index (NDVI) ([1]; RapidSCAN CS-45, BBCH 69, non-irrigated): 0.592 | Normalised Difference Vegetation Index (NDVI) ([1]; RapidSCAN CS-45, BBCH 73, 50% ET compensation): 0.657 | Normalised Difference Vegetation Index (NDVI) ([1]; RapidSCAN CS-45, BBCH 73, non-irrigated): 0.625 | Normalised Difference Vegetation Index (NDVI) ([1]; RapidSCAN CS-45, BBCH 83-85, 50% ET compensation): 0.572 | Normalised Difference Vegetation Index (NDVI) ([1]; RapidSCAN CS-45, BBCH 83-85, non-irrigated): 0.393 | Normalised Difference Vegetation Index (NDVI) ([1]; RapidSCAN CS-45, BBCH 85, 50% ET compensation): 0.538 | Normalised Difference Vegetation Index (NDVI) ([1]; RapidSCAN CS-45, BBCH 85, non-irrigated): 0.320 | Normalised Difference Vegetation Index (NDVI) ([1]; RapidSCAN CS-45, BBCH 87, 50% ET compensation): 0.204 | Normalised Difference Vegetation Index (NDVI) ([1]; RapidSCAN CS-45, BBCH 87, non-irrigated): 0.083 | Protein content ([1]; non-irrigated): 12.68% | Grain Yield ([1]; non-irrigated): 57.73 dT/Ha | TGW ([1]; non-irrigated): 51.16 g | No. of grains per ear ([1]; non-irrigated): 37.88 | general phytotoxicity ([2]; EC 100 at 30 or 75 g ha^-1, BBCH 39 to 55, all trials, 7 and 14 days after application): did not cause any phytotoxic effects | average grain yield increase with 75 g ha^-1 compared to the rate of 30 g ha^-1 ([2]; controlled drought stress conditions): +0.23 dt ha^-1 | average grain yield increase compared to untreated check [2]: +5.2% | average grain yield increase compared to untreated check ([2]; 95% CI +1.45 to +3.21 dt ha^-1): +2.33 dt ha^-1 | mean TGW increase versus untreated check [2]: +1.9% | mean TGW increase versus untreated check ([2]; 95 % CI [+0.23, +1.13] g 1000 seeds^-1): 0.68 g 1000 seeds^-1 | grain yield increase compared to untreated check [2]: +6.0% | grain yield increase compared to untreated check ([2]; 95% CI [+1.69, +4.03] dt ha^-1): +2.86 dt ha^-1 | TGW compared to untreated check ([2]; single trial ANOVA, p ≤ 0.05): did not detect any significant effect | grain yield adjusted to 10% standard moisture compared to untreated check ([2]; single trial ANOVA, p ≤ 0.05): did not detect any significant effect | impact on biomass accumulation ([3]; EC 100 at 75 g ha^-1): no negative impact | transpiration decrease compared to untreated control plants ([3]; EC 100 at 75 g ha^-1, BBCH 23, within one day, constant soil water content): about 8% | shoot dry weight ([3]; EC 100 at 75 g ha^-1, end of the experiment, control plants same value): 6.3 ± 0.4 g plant^-1 | transpiration rate during soil drying compared to untreated control plants ([3]; EC 100 at 75 g ha^-1, irrigation withheld eight days after application): transiently higher transpiration rate | duration of transpiration decrease ([3]; EC 100 at 75 g ha^-1, optimal watering): consistent for at least seven days
